Results published in PubChem BioAssay AID463204 (Broad Institute, 2010).
Calls of active or inactive are those of the source.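 Rule for the calls: active = AC50 no more than ten times the top concentration tested, that is within one log above it; inconclusive = flat curve fit with activity between 30% and 70%, or invalid poor fit; inactive = AC50 beyond ten times the top tested dose.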

System: S. cerevisiae Mot1-301 ts growth rescue, BacTiter-Glo ATP luminescence
Assay: growth rescue of Mot1-301 ts yeast, confirmation, SUMOylation pathway inhibitor project, whole organism, S. cerevisiae, Mot1-301 ts mutant, luminescence, dose retest (AID 463204);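 note: growth at restrictive 38.5 degrees C of Mot1-301 OY566 strain; actives raise luminescence by restoring growth of the ts mutant at high temperature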

Row | SMILES | AC50
1 | Cc1nc2c3ccccc3nc(NNC(=O)CCC(=O)N3CCCC(C)C3)n2n1 (stereo unspecified) | > 42 µM (inactive)
2 | O=C(Nc1ncccn1)c1ccc(C(F)(F)F)cc1 | > 42 µM (inactive)
3 | O=C(O)C1C2CCCCC2=C2CCCCC2C1C(=O)c1ccccc1 (stereo unspecified) | 3.26 µM
4 | Cn1c(=O)[nH]c(=O)c2c1nc(NCCN)n2CCOc1ccccc1 | > 42 µM (inactive)
5 | COC(=O)Oc1ccc(/C=N/NS(=O)(=O)c2ccccc2)cc1OC | > 42 µM (inactive)
6 | O=S(=O)(c1cccc(-c2nnco2)c1)N1CCCC1 | > 42 µM (inactive)
7 | CS(=O)(=O)N1CCC(Oc2ccccc2C(=O)N2CCNC(=O)C2)CC1 | > 42 µM (inactive)
8 | CCOC(=O)C1ON2CCCCC2C1(O)C(F)(F)F (stereo unspecified) | > 42 µM (inactive)
9 | O=C1c2cc(N3CCCC3)c([N+](=O)[O-])cc2C(=O)N1c1ccccc1 | > 42 µM (inactive)
10 | COc1ccc(N(CC(=O)NCc2ccc(C)cc2)S(=O)(=O)c2c(C)nn(C)c2C)cc1 | > 42 µM (inactive)
11 | COc1ccc(-c2nnc(SCC(=O)N3CCCCC3)o2)cc1 | > 42 µM (inactive)
12 | O=C1C2CCCCN2C(=O)N1CCCCN1CCN(c2ccccc2Oc2ccccc2)CC1 (stereo unspecified) | > 42 µM (inactive)
13 | O=S(=O)(NCc1cccc(C(F)(F)F)c1)NCc1ccccc1F | > 42 µM (inactive)
14 | COc1ccc(CCC(=O)Nc2ccc3c(c2)OCO3)cc1 | > 42 µM (inactive)
15 | CCN(C(=S)NCCOC)c1cccc2ccccc12 | > 42 µM (inactive)
16 | COc1cccc(C(=O)NCc2ccc(-c3nc4ccccc4s3)cc2)c1 | > 42 µM (inactive)
17 | CCOc1ccccc1Nc1nnc(SCc2nnc(-c3cc(OC)c(OC)c(OC)c3)o2)s1 | > 42 µM (inactive)
18 | N#Cc1cc([N+](=O)[O-])cnc1NCC(O)CO (stereo unspecified) | > 42 µM (inactive)
19 | Cc1[nH]c(C)c(S(=O)(=O)NCC(C)c2ccccc2)c1C(=O)N1CCCCC1 (stereo unspecified) | > 42 µM (inactive)
20 | Cc1ccc(S(=O)(=O)CCC(=O)OCC(=O)N(C)C2CCS(=O)(=O)C2)cc1 (stereo unspecified) | > 42 µM (inactive)
21 | O=C(O)c1cc(S(=O)(=O)Nc2ccc(OCc3ccccc3)cc2)ccc1Br | > 42 µM (inactive)
22 | O=C(COc1ncnc2c(Cl)cc(Cl)cc12)NCCC1=CCCCC1 | > 42 µM (inactive)
23 | C=CCC(NCCCO)c1cccc(OC)c1OC (stereo unspecified) | > 42 µM (inactive)
24 | CC(C)n1c(CN(C)c2ccccc2)nc2ccccc21 | > 42 µM (inactive)
25 | COc1ccc(/C=C2/SC(=O)N(NS(=O)(=O)c3ccccc3)C2=S)cc1OC | > 42 µM (inactive)
26 | CC(=O)N1N=C(c2ccc(C(C)(C)C)cc2)OC1(C)C | > 42 µM (inactive)

Row | SMILES | AC50
27 | O=C(NCc1ccccn1)C1CC(c2ccc(Cl)c(Cl)c2)=NO1 (stereo unspecified) | > 42 µM (inactive)
28 | CCN(CC)CCCN(Cc1cc2cc(OC)ccc2[nH]c1=O)C(=O)Nc1ccc(F)cc1 | > 42 µM (inactive)
29 | Cc1cc(C(=O)OCC(=O)Nc2cccc(S(N)(=O)=O)c2)c2ccccc2n1 | > 42 µM (inactive)
30 | O=C(CSc1nc(-c2ccccc2)cc(=O)[nH]1)Nc1ccc(Br)cc1 | > 42 µM (inactive)
31 | Cc1cc(C)c(OCC(=O)N/N=C/c2ccco2)c(C)c1 | > 42 µM (inactive)
32 | CN=C(Nc1cccnc1)c1ccccc1 | > 42 µM (inactive)
33 | CCCCC(=O)NCCc1ccc(S(N)(=O)=O)cc1 | > 42 µM (inactive)
34 | COc1nc(-c2ccccc2)ccc1-c1noc(-c2ccccc2)n1 | > 42 µM (inactive)
35 | Cc1cc(C)c(NC(=O)CNC(=O)c2cc([N+](=O)[O-])ccc2N2CCOCC2)c(C)c1 | > 42 µM (inactive)
36 | COc1ccc(-n2c3c(cc(C(=O)NCC(=O)c4ccccc4)c2=O)C(=O)CC(C)(C)C3)cc1 | > 42 µM (inactive)
37 | CCCNCC(O)COc1ccccc1C(=O)CCc1ccccc1 (stereo unspecified) | > 42 µM (inactive)
38 | CN(C)c1oc(-c2ccccc2Cl)nc1S(=O)(=O)c1ccccc1 | > 42 µM (inactive)
39 | CC1(C)CC(=O)C(CC2CCCCC2=O)C(=O)C1 (stereo unspecified) | > 42 µM (inactive)
40 | Cc1nc(SCC(=O)O)n[nH]1 | > 42 µM (inactive)
41 | C[C@@]12C(=O)Nc3ccc(F)cc3C(=O)N1[C@H]1c3cc(Cl)ccc3OC[C@@H]1[C@@H]2c1ccccc1 | 1.97 µM
42 | O=C(Cn1nc(C(F)(F)F)c2c1CCCC2)N1CCOCC1 | > 42 µM (inactive)
43 | CN(C)CCOC(c1ccc(Cl)cc1)c1ccccn1 (stereo unspecified) | > 42 µM (inactive)
44 | CC1CCCC(C)N1/N=C/c1cc(Br)cc(Br)c1O (stereo unspecified) | 12.5 µM
45 | CC(=O)c1ccc(N2CCN(CC(=O)Nc3cc(C)on3)CC2)cc1 | > 42 µM (inactive)
46 | CCCC1Cc2c(sc3ncnc(N)c23)CO1 (stereo unspecified) | > 42 µM (inactive)
47 | CCc1nc2ccc(C(=O)N3CCN(CC)CC3)cc2nc1CC | > 42 µM (inactive)
48 | COc1cccc(NC(=S)NC(=O)c2cncc(Br)c2)c1 | > 42 µM (inactive)
49 | O=C(O)c1ccc(Cl)c(NCc2cccs2)c1 | > 42 µM (inactive)
50 | Cc1nn(CCOc2ccccc2)c(=O)n1-c1ccccc1F | > 42 µM (inactive)
51 | CC1(C)CC(=O)C2=C(C1)OC(N)=C(C#N)C21C(=O)N(CN2CCOCC2)c2ccccc21 (stereo unspecified) | > 42 µM (inactive)
52 | CCCn1c(SC(C)C(=O)NCC2CCCO2)nc2sc(CC)cc2c1=O (stereo unspecified) | > 42 µM (inactive)

Row | SMILES | AC50
53 | O=S(=O)(c1ccc(S(=O)(=O)N2CCCC2)cc1)N1CCCCC1 | > 42 µM (inactive)
54 | O=C(COC(=O)[C@@H]1CC(O)CN1S(=O)(=O)c1ccccc1[N+](=O)[O-])Nc1ccc2ccccc2c1 (stereo partly specified) | > 42 µM (inactive)
55 | Cc1cc(S(=O)(=O)N2CCCC(N3CCOCC3)C2)c(C)cc1Cl (stereo unspecified) | > 42 µM (inactive)
56 | O=C1C2CCCN2C(=S)N1C1CCCCC1 (stereo unspecified) | > 42 µM (inactive)
57 | COc1ccc(C(=O)N2CCN(c3ccc(NC(=O)c4cccnc4)cc3)CC2)cc1 | > 42 µM (inactive)
58 | Nc1cc(Cl)ccc1N1CCOCC1 | > 42 µM (inactive)
59 | Cc1cc(-c2ccccc2)n(-c2ccc(C(=O)NC(C)C)cc2)n1 | > 42 µM (inactive)
60 | COc1cc2c(cc1OC)CN(C(=O)Cc1c(F)cccc1Cl)CC2 | > 42 µM (inactive)
61 | Cc1ccc(C)c(S(=O)(=O)n2cnc3ccccc32)c1 | > 42 µM (inactive)
62 | C/C(=N\NC(=S)Nc1ccccc1)C1Cc2ccccc2C(=O)O1 (stereo unspecified) | > 42 µM (inactive)
63 | COc1ccccc1NC(=O)c1nn(C)cc1Br | > 42 µM (inactive)
64 | O=C(Cc1cccs1)Nc1cccc(-c2nnc(-c3ccco3)o2)c1 | > 42 µM (inactive)
65 | CN(C=O)CP(=O)(O)CN(C)C=O | > 42 µM (inactive)
66 | O=C(CSc1nc2ccc(Cl)cc2[nH]1)NCc1ccco1 | > 42 µM (inactive)
67 | CN(CCOc1ccc(Cl)cc1)CC(=O)Nc1ccc(OC(F)F)cc1 | > 42 µM (inactive)
68 | CCCCCC(=O)NNC1=NCC(Cc2cccc(Cl)c2)S1 (stereo unspecified) | > 42 µM (inactive)
69 | Cn1c(SCC(=O)N/N=C/c2ccc([N+](=O)[O-])s2)nnc1-c1ccc(Cl)cc1 | 10.2 µM
70 | CCOC(=O)Cc1csc(NC(=O)NC2(C(F)(F)F)Oc3ccccc3O2)n1 | > 42 µM (inactive)
71 | O=C(/C=C/c1ccc(Cl)cc1Cl)Nc1cccc(S(=O)(=O)NC2=NCCCCC2)c1 | > 42 µM (inactive)
72 | Nc1ccnc(=O)[nH]1 | > 42 µM (inactive)
73 | O=C1c2ccccc2C(=O)N1CCSc1ccccc1 | > 42 µM (inactive)
74 | CN(C(=O)c1ccncc1)c1nnc(-c2cnccn2)s1 | > 42 µM (inactive)
75 | CCNc1ccc(S(=O)(=O)N(C)C)cc1NCC(=O)Nc1ccccc1Br | > 42 µM (inactive)
76 | CC1(C)Cc2c(c(N3CCCC3)nc3sc4c(N5CCN(CCO)CC5)ncnc4c23)CO1 | > 42 µM (inactive)
77 | COc1cc(C(=O)NCCC2=CCCCC2)cc(OC)c1OC | > 42 µM (inactive)
78 | COc1ccc2[nH]c(=O)c(CN(C(=O)c3ccccn3)c3ccccc3)cc2c1 | > 42 µM (inactive)

Row | SMILES | AC50
79 | COc1ccccc1CNC(=O)CCC(=O)Nc1nnc(C(C)C)s1 | > 42 µM (inactive)
80 | O=C(O)c1cccc(NC(=O)c2cccc(S(=O)(=O)Nc3cccc([N+](=O)[O-])c3)c2)c1 | > 42 µM (inactive)
81 | CS(=O)(=O)N(CC(=O)N1CCN(c2ccccc2F)CC1)C1CCCCC1 | > 42 µM (inactive)
82 | CC(C)C1OC2(C)OC(=N)C1(C#N)C(C#N)(C#N)C2c1ccccc1 (stereo unspecified) | > 42 µM (inactive)
83 | CCn1c(SCC(=O)Nc2ccc(NC(=O)c3ccco3)cc2)nnc1-c1cccs1 | > 42 µM (inactive)
84 | CCCCC1=CC2=CC(=O)C(C)(OC(=O)CC)C(=O)C2=CN1CCc1ccc(Br)cc1 (stereo unspecified) | > 42 µM (inactive)
85 | C=CCN1C(=O)/C(=C\c2ccc(C)cc2)N=C1SCC(=O)NCCC | > 42 µM (inactive)
86 | CCOc1ccc(Br)cc1CNCCN1CCOCC1 | > 42 µM (inactive)
87 | COc1ccc(N2C(=O)CC(NCc3cccs3)C2=O)cc1 (stereo unspecified) | > 42 µM (inactive)
88 | CCCCn1c(N)c(N(CC(C)C)C(=O)c2cc(-c3ccc(F)cc3)nc3ccccc23)c(=O)[nH]c1=O | > 42 µM (inactive)
89 | CCN1C(=NCc2cccc(Cl)c2)N[C@@H](c2cccc(F)c2)C(C(=O)OC)=C1C | > 42 µM (inactive)
90 | Cc1ccc(NC(=O)COc2ccccc2C(=O)NCCN(C)C)cc1 | > 42 µM (inactive)
91 | Cc1ccc(Sc2cnccc2C#N)cc1 | > 42 µM (inactive)
92 | Cc1sc(NC(=O)c2ccc(Br)s2)c(C(N)=O)c1C | > 42 µM (inactive)
93 | CCOC(=O)C(C)(C)Sc1nc2c(cnn2-c2ccc(C)cc2)c(=O)[nH]1 | > 42 µM (inactive)
94 | COC(=O)c1sc(NC(=O)c2ccc(Cn3cc(Cl)cn3)o2)c(C#N)c1C | > 42 µM (inactive)
95 | CN(C/C=C/c1ccccc1[N+](=O)[O-])Cc1ccccc1 | > 42 µM (inactive)
96 | COc1ccc(Cl)cc1C(=O)NCCc1ccc(S(=O)(=O)NC(=O)NC2CCCCC2)cc1 | > 42 µM (inactive)
97 | COc1ccc(OC)c(Cc2nnc(CCC(=O)NCc3ccsc3)o2)c1 | > 42 µM (inactive)
98 | CN(C)c1ccc(/C=C/c2cccc[n+]2[O-])cc1 | > 42 µM (inactive)
99 | CCCc1ccccc1OCCNC(C)=O | > 42 µM (inactive)
100 | CC(C)(C)n1nnnc1C(c1ccc(Cl)cc1)N(Cc1cccnc1)Cc1ccco1 (stereo unspecified) | 7.98 µM
101 | Cc1cccc(N2CCN(C(=O)CN3C(=O)NC(C)(C)C3=O)CC2)c1C | > 42 µM (inactive)
